Measured values taken from patent US10294202B2, “Pyrrolidinones as herbicides” (FMC Corporation, priority 2013, dated 2019).

Columns and labels:
[1] = test system: corn; assay: Test A pre-/postemergence herbicide test; assay type: in vivo, Zea mays
In short: (§1)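 Both application timings used compounds in a non-phytotoxic solvent plus surfactant. Pre-emergence: soil sprayed directly after seeding into loam/sand. Post-emergence: foliage of 2–10 cm seedlings (1–2 leaves) sprayed. Injury rated ~10 days later, 0–100.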

[2] = test system: giant foxtail; assay: Test A pre-/postemergence herbicide test; assay type: in vivo, Setaria faberii
In short: as §1

[3] = test system: ducksalad; assay: Test B flooded paddy test; assay type: in vivo, Heteranthera limosa; settings: Flood, scale of 0 to 100 where 0 is no effect and 100 is complete control
In short: (§2)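 Plants were grown to the 2-leaf stage, then pots were flooded to 3 cm above the soil and compound was applied directly into the paddy water, with that depth held throughout. After 13 to 15 days in a greenhouse, injury was rated visually against untreated controls on a 0 to 100 scale (100 = complete control).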

[4] = test system: barnyardgrass; assay: Test A pre-/postemergence herbicide test; assay type: in vivo, Echinochloa crus-galli
In short: as §1

[5] = test system: rice; assay: Test B flooded paddy test; assay type: in vivo, Oryza sativa; settings: Flood, scale of 0 to 100 where 0 is no effect and 100 is complete control
In short: as §2

[6] = test system: sedge, umbrella; assay: Test B flooded paddy test; assay type: in vivo, Cyperus difformis; settings: Flood, scale of 0 to 100 where 0 is no effect and 100 is complete control
In short: as §2

[7] = test system: wheat; assay: Test A pre-/postemergence herbicide test; assay type: in vivo, Triticum aestivum
In short: as §1

[8] = test system: velvetleaf; assay: Test A pre-/postemergence herbicide test; assay type: in vivo, Abutilon theophrasti
In short: as §1

[9] = test system: pigweed; assay: Test A pre-/postemergence herbicide test; assay type: in vivo, Amaranthus retroflexus
In short: as §1

[10] = test system: crabgrass, large; assay: Test A pre-/postemergence herbicide test; assay type: in vivo, Digitaria sanguinalis
In short: as §1

[11] = test system: morningglory; assay: Test A pre-/postemergence herbicide test; assay type: in vivo, Ipomoea spp.
In short: as §1

[12] = test system: barnyardgrass; assay: Test B flooded paddy test; assay type: in vivo, Echinochloa crus-galli; settings: Flood, scale of 0 to 100 where 0 is no effect and 100 is complete control
In short: as §2

[13] = Postemergence, 125 g ai/ha, 0 to 100 scale, 0 is no effect, 100 is complete control
[14] = Postemergence, 500 g ai/ha, 0 to 100 scale (0 no effect, 100 complete control)
[15] = Preemergence, 125 g ai/ha, 0 to 100 scale where 0 is no effect and 100 is complete control
[16] = preemergence, 500 g ai/ha, 0 to 100 scale, 0 is no effect and 100 is complete control
[17] = Postemergence, 125 g ai/ha, visual rating on 0 to 100 scale (0 no effect, 100 complete control), approx. 10 days
[18] = Postemergence, 1000 g ai/ha, 0 to 100 scale (0 no effect, 100 complete control)
[19] = Preemergence, 1000 g ai/ha, visual rating on 0 to 100 scale (0 no effect, 100 complete control), approx. 10 days
[20] = preemergence, 1000 g ai/ha, 0 to 100 scale

Question: `O=C1NCC(c2ccc(Cl)c(C(F)(F)F)c2)C1C(=O)Nc1cccc(F)c1F` (racemic) [Compound 268] was tested. Which “Plant response rating, Corn” value [1, 13] did it give?
Answer: 0

Question: And the “Plant response rating, Corn” value [1, 14]?
Answer: 40

Question: What about the “Plant response rating, Corn” value [1, 15] of the same compound?
Answer: 0

Question: What about the “Plant response rating, Corn” value [1, 16] of the same compound?
Answer: 80

Question: And the “Plant response rating, Foxtail, Giant” value [2, 13]?
Answer: 80

Question: And the “Plant response rating, Foxtail, Giant” value [2, 14]?
Answer: 90

Question: What about the “Plant response rating, Foxtail, Giant” value [2, 15] of the same compound?
Answer: 70

Question: What about the “Plant response rating, Foxtail, Giant” value [2, 16] of the same compound?
Answer: 80

Question: And the “Plant response rating, Ducksalad” value ([3]; 1000 g ai/ha)?
Answer: 100

Question: What about the “Plant response rating, Barnyardgrass” value [4, 13] of the same compound?
Answer: 50

Question: And the “Plant response rating, Barnyardgrass” value [4, 14]?
Answer: 70

Question: And the “Plant response rating, Barnyardgrass” value [4, 15]?
Answer: 70

Question: And the “Plant response rating, Barnyardgrass” value [4, 16]?
Answer: 80

Question: What about the “Plant response rating, Rice” value ([5]; 1000 g ai/ha) of the same compound?
Answer: 20

Question: And the “Plant response rating, Sedge, Umbrella” value ([6]; 1000 g ai/ha)?
Answer: 0

Question: And the “Plant response rating, Wheat” value [7, 17]?
Answer: 0

Question: What about the “Plant response rating, Wheat” value [7, 14] of the same compound?
Answer: 0

Question: What about the “Plant response rating, Wheat” value [7, 15] of the same compound?
Answer: 0

Question: And the “Plant response rating, Wheat” value [7, 16]?
Answer: 0

Question: What about the “Plant response rating, Velvetleaf” value [8, 15] of the same compound?
Answer: 0

Question: And the “Plant response rating, Velvetleaf” value [8, 16]?
Answer: 0

Question: What about the “Plant response rating, Pigweed” value [9, 17] of the same compound?
Answer: 50

Question: What about the “Plant response rating, Pigweed” value [9, 14] of the same compound?
Answer: 80

Question: What about the “Plant response rating, Pigweed” value [9, 15] of the same compound?
Answer: 30

Question: And the “Plant response rating, Pigweed” value [9, 16]?
Answer: 60

Question: What about the “Plant response rating, Crabgrass, Large” value [10, 13] of the same compound?
Answer: 70

Question: What about the “Plant response rating, Crabgrass, Large” value [10, 14] of the same compound?
Answer: 80

Question: And the “Plant response rating, Crabgrass, Large” value [10, 15]?
Answer: 80

Question: And the “Plant response rating, Crabgrass, Large” value [10, 16]?
Answer: 90

Question: And the “Plant response rating, Morningglory” value [11, 17]?
Answer: 20

Question: What about the “Plant response rating, Morningglory” value [11, 14] of the same compound?
Answer: 0

Question: And the “Plant response rating, Morningglory” value [11, 15]?
Answer: 0

Question: What about the “Plant response rating, Morningglory” value [11, 16] of the same compound?
Answer: 60

Question: What about the “Plant response rating, Barnyardgrass” value ([12]; 1000 g ai/ha) of the same compound?
Answer: 0

Question: What does the source list for `O=C1NCC(c2ccc(C(F)(F)F)c(Cl)c2)C1C(=O)Nc1cccc(F)c1F` (racemic) [Compound 250]?
Answer: Plant response rating, Corn [1, 13]: 0; Plant response rating, Corn [1, 14]: 0; Plant response rating, Corn [1, 15]: 0; Plant response rating, Corn [1, 16]: 0; Plant response rating, Foxtail, Giant [2, 13]: 30; Plant response rating, Foxtail, Giant [2, 14]: 50; Plant response rating, Foxtail, Giant [2, 15]: 50; Plant response rating, Foxtail, Giant [2, 16]: 80; Plant response rating, Ducksalad ([3]; 1000 g ai/ha): 80; Plant response rating, Barnyardgrass [4, 13]: 30; Plant response rating, Barnyardgrass [4, 14]: 50; Plant response rating, Barnyardgrass [4, 15]: 20; Plant response rating, Barnyardgrass [4, 16]: 80; Plant response rating, Rice ([5]; 1000 g ai/ha): 0; Plant response rating, Sedge, Umbrella ([6]; 1000 g ai/ha): 0; Plant response rating, Wheat [7, 13]: 0; Plant response rating, Wheat [7, 14]: 0; Plant response rating, Wheat [7, 15]: 0; Plant response rating, Wheat [7, 16]: 0; Plant response rating, Velvetleaf [8, 13]: 0; Plant response rating, Velvetleaf [8, 14]: 0; Plant response rating, Velvetleaf [8, 15]: 0; Plant response rating, Velvetleaf [8, 16]: 0; Plant response rating, Pigweed [9, 13]: 0; Plant response rating, Pigweed [9, 14]: 0; Plant response rating, Pigweed [9, 15]: 0; Plant response rating, Pigweed [9, 16]: 0; Plant response rating, Crabgrass, Large [10, 13]: 0; Plant response rating, Crabgrass, Large [10, 14]: 40; Plant response rating, Crabgrass, Large [10, 15]: 80; Plant response rating, Crabgrass, Large [10, 16]: 90; Plant response rating, Morningglory [11, 13]: 0; Plant response rating, Morningglory [11, 14]: 0; Plant response rating, Morningglory [11, 15]: 0; Plant response rating, Morningglory [11, 16]: 0; Plant response rating, Barnyardgrass ([12]; 1000 g ai/ha): 0

Question: What does the source list for `CS(=O)(=O)c1ccccc1NC(=O)C1C(=O)NCC1c1ccc(Cl)c(Cl)c1` (stereo not shown) [Compound 43]?
Answer: Plant response rating, Corn [1, 18]: 0; Plant response rating, Corn [1, 19]: 0; Plant response rating, Foxtail, Giant [2, 18]: 50; Plant response rating, Foxtail, Giant [2, 19]: 80; Plant response rating, Ducksalad ([3]; 250 g ai/ha): 0; Plant response rating, Barnyardgrass [4, 18]: 40; Plant response rating, Barnyardgrass [4, 19]: 20; Plant response rating, Rice ([5]; 250 g ai/ha): 0; Plant response rating, Sedge, Umbrella ([6]; 250 g ai/ha): 0; Plant response rating, Wheat [7, 18]: 0; Plant response rating, Wheat [7, 19]: 0; Plant response rating, Velvetleaf [8, 18]: 30; Plant response rating, Velvetleaf [8, 19]: 0; Plant response rating, Pigweed [9, 18]: 20; Plant response rating, Pigweed [9, 19]: 0; Plant response rating, Crabgrass, Large [10, 18]: 20; Plant response rating, Crabgrass, Large [10, 19]: 90; Plant response rating, Morningglory [11, 18]: 10; Plant response rating, Morningglory [11, 19]: 0; Plant response rating, Barnyardgrass ([12]; 250 g ai/ha): 0

Question: With `O=C1NCC(c2ccc(F)c(F)c2)C1C(=O)Nc1ccccc1` (racemic) [Compound 30] as the compound, how does the “Plant response rating, Corn” value [1, 18] read?
Answer: 0

Question: And the “Plant response rating, Corn” value [1, 19]?
Answer: 0

Question: What about the “Plant response rating, Foxtail, Giant” value [2, 18] of the same compound?
Answer: 80

Question: And the “Plant response rating, Foxtail, Giant” value [2, 19]?
Answer: 90

Question: And the “Plant response rating, Ducksalad” value ([3]; 250 g ai/ha)?
Answer: 0

Question: And the “Plant response rating, Barnyardgrass” value [4, 18]?
Answer: 90

Question: What about the “Plant response rating, Barnyardgrass” value [4, 19] of the same compound?
Answer: 90

Question: What about the “Plant response rating, Rice” value ([5]; 250 g ai/ha) of the same compound?
Answer: 0

Question: What about the “Plant response rating, Sedge, Umbrella” value ([6]; 250 g ai/ha) of the same compound?
Answer: 0

Question: What about the “Plant response rating, Wheat” value [7, 18] of the same compound?
Answer: 0

Question: And the “Plant response rating, Wheat” value [7, 19]?
Answer: 0

Question: What about the “Plant response rating, Velvetleaf” value [8, 18] of the same compound?
Answer: 0

Question: What about the “Plant response rating, Velvetleaf” value [8, 19] of the same compound?
Answer: 0

Question: What about the “Plant response rating, Pigweed” value [9, 18] of the same compound?
Answer: 0

Question: And the “Plant response rating, Pigweed” value [9, 19]?
Answer: 0

Question: What about the “Plant response rating, Crabgrass, Large” value [10, 18] of the same compound?
Answer: 80

Question: And the “Plant response rating, Crabgrass, Large” value [10, 19]?
Answer: 90

Question: What about the “Plant response rating, Morningglory” value [11, 18] of the same compound?
Answer: 0

Question: What about the “Plant response rating, Morningglory” value [11, 19] of the same compound?
Answer: 0

Question: And the “Plant response rating, Barnyardgrass” value ([12]; 250 g ai/ha)?
Answer: 0

Question: `O=C1NCC(c2ccc(F)c(F)c2)C1C(=O)Nc1cccnc1F` (racemic) [Compound 105] was tested. Which “Plant response rating, Corn” value [1, 18] did it give?
Answer: 0

Question: What about the “Plant response rating, Corn” value [1, 20] of the same compound?
Answer: 0

Question: And the “Plant response rating, Foxtail, Giant” value [2, 18]?
Answer: 80

Question: And the “Plant response rating, Foxtail, Giant” value [2, 20]?
Answer: 90

Question: What about the “Plant response rating, Ducksalad” value ([3]; 1000 g ai/ha) of the same compound?
Answer: 90

Question: And the “Plant response rating, Barnyardgrass” value [4, 18]?
Answer: 90

Question: What about the “Plant response rating, Barnyardgrass” value ([4]; preemergence, 1000 g ai/ha, 0 to 100 scale (0 no effect, 100 complete control)) of the same compound?
Answer: 90

Question: And the “Plant response rating, Rice” value ([5]; 1000 g ai/ha)?
Answer: 10

Question: And the “Plant response rating, Sedge, Umbrella” value ([6]; 1000 g ai/ha)?
Answer: 0

Question: What about the “Plant response rating, Wheat” value [7, 18] of the same compound?
Answer: 0

Question: And the “Plant response rating, Wheat” value [7, 20]?
Answer: 0

Question: What about the “Plant response rating, Velvetleaf” value [8, 18] of the same compound?
Answer: 10

Question: What about the “Plant response rating, Velvetleaf” value [8, 20] of the same compound?
Answer: 0

Question: What about the “Plant response rating, Pigweed” value [9, 18] of the same compound?
Answer: 0

Question: And the “Plant response rating, Pigweed” value [9, 20]?
Answer: 0

Question: What about the “Plant response rating, Crabgrass, Large” value [10, 18] of the same compound?
Answer: 90

Question: And the “Plant response rating, Crabgrass, Large” value [10, 20]?
Answer: 90

Question: What about the “Plant response rating, Morningglory” value [11, 18] of the same compound?
Answer: 10

Question: What about the “Plant response rating, Morningglory” value [11, 20] of the same compound?
Answer: 0

Question: And the “Plant response rating, Barnyardgrass” value ([12]; 1000 g ai/ha)?
Answer: 25
